Measurements taken from patent US8461117B2, “Chemical linkers and cleavable substrates and conjugates thereof” (Medarex, Inc., priority 2006, dated 2013).

Experiments:
[1] = cited from earlier work
786-O [2] = assay: Second in vivo study: 786-O xenografts, cytotoxins (Compounds A, F, H-J) conjugated to anti-CD70 HuMAb 2H5; design: species or system CB17.SCID mice; conditions: 786-O xenograft, tumors averaging 200 mm^3, single IP dose Day 0, 0.005-0.03 Toxin μmole, conjugated to CD70.1
Procedure: (§1) 786-O (ATCC Accession No. CRL-1932) cells were expanded in vitro using standard laboratory procedures. Male CB17.SCID mice (Taconic, Hudson, N.Y.) between 6-8 weeks of age were implanted subcutaneously in the right flank with 2.5 million 786-O in 0.2 ml of PBS/Matrigel (1:1) per mouse. Mice were weighed and measured for tumors three dimensionally using an electronic caliper twice weekly after implantation. Tumor volumes were calculated as height×width×length. Mice with tumors averaging 200 mm^3 were randomized into treatment groups. The mice were dosed intraperitoneally with PBS vehicle, cytotoxin-conjugated isotype control antibody or cytotoxin-conjugated anti-CD70 HuMAb 2H5 on Day 0. Each group contained 8 mice.

786-O [3] = assay: First in vivo study: 786-O xenografts, cytotoxins (Compounds A-G) conjugated to anti-CD70 HuMAb 2H5; design: species or system CB17.SCID mice; conditions: 786-O xenograft, tumors averaging 200 mm^3, single IP dose Day 0, 0.1 (some also 0.01) Toxin μmole, conjugated to CD70.1
Procedure: as §1, with “as height x width x length.” for “as height×width×length.”, “contained 7” for “contained 8”

Compound | Efficacy, descending order (mean/median tumor volume versus days past dosing, FIGS. 4-5) (786-O [2]) | other results
COc1c(O)c2c(c3cc(C(=O)N4CCc5c4c(O)c(OC)c4[nH]c(C(=O)N6CC7CC78C6=CC(=O)c6[nH]cc(C)c68)cc54)[nH]c13)CCN2C(N)=O (stereo not drawn) [CC-1065] |  | Antitumor and antimicrobial activity ([1]; both in vitro and in experimental animals (Li et al. 1982)): potent antitumor and antimicrobial activity; Toxicity in experimental animals ([1]; experimental animals): delayed death
CC(C)[C@H](NC(=O)CCOCCOCCOCCOCCNC(=O)CCN1C(=O)C=CC1=O)C(=O)N[C@@H](CCCNC(N)=O)C(=O)N1CCc2c1ccc1[nH]c(C(=O)N3C[C@@H](CBr)c4c3cc(OC(=O)N3CCN(C)CC3)c3ccccc43)cc21 [Compound C] | Compound J/Compound C>Compound H>Compound G/Compound I>Naked CD70.1 | 
CC(C)[C@H](NC(=O)CCOCCOCCOCCOCCNC(=O)CCN1C(=O)C=CC1=O)C(=O)N[C@@H](CCCNC(N)=O)C(=O)N1CCc2c1ccc1[nH]c(C(=O)N3C[C@@H](CBr)c4c3cc(OC(=O)N3CCN(C)CC3)c3ccccc43)cc21 [Compound D] |  | Efficacy, descending order (mean/median tumor volume versus days past dosing, FIGS. 1-2) (786-O [3]): Compound D>Compound A>Compound F>Compound B>Compound C>Compound E>Naked CD70.1/Compound G
CC(C)[C@H](NCCNC(=O)CCCN1C(=O)C=CC1=O)C(=O)N[C@@H](CCCNC(N)=O)C(=O)Nc1ccc(C(=O)Nc2ccc3[nH]c(C(=O)N4C[C@@H](CBr)c5c4cc(OC(=O)N4CCN(C)CC4)c4ccccc54)cc3c2)cc1 [Compound H] | Compound J/Compound C>Compound H>Compound G/Compound I>Naked CD70.1 | 
CC(C)[C@H](NCCNC(=O)CCCN1C(=O)C=CC1=O)C(=O)N[C@@H](CCCNC(N)=O)C(=O)Nc1ccc(C(=O)Nc2ccc3[nH]c(C(=O)N4C[C@@H](CCl)c5c4cc(OC(=O)N4CCN(C)CC4)c4ccccc54)cc3c2)cc1 [Compound J] | Compound J/Compound C>Compound H>Compound G/Compound I>Naked CD70.1 | 
